Assay results published in patent US20100144725A1, “PESTICIDAL COMBINATIONS” (SYNGENTA CROP PROTECTION, INC., priority 2007, published 2010).

What was measured:
Rhizoctonia solani = test: Fungal growth assay, Rhizoctonia solani (foot rot, damping-off), microtiter plate, photometric; assay type: cell-based; conditions: 72 hrs
Experimental: The action to be expected E for a given active ingredient combination obeys the so-called COLBY formula and can be calculated as follows (COLBY, S. R. “Calculating synergistic and antagonistic responses of herbicide combination”. Weeds, Vol. 15, pages 20-22; 1967): If the action actually observed (O) is greater than the expected action (E), then the action of the combination is super-additive, i.e. there is a synergistic effect. Inhibiting of fungal growth of the following fungi are carried out by fungal growth assays (detailed below). Rhizoctonia solani (foot rot, damping-off): Mycelial fragments of a newly grown culture of the fungus are directly mixed into nutrient broth (PDB potato dextrose broth). After placing a (DMSO) solution of the test compounds into a microtiter plate (96-well format) the nutrient broth containing the fungal spores is added. The test plates were incubated at 24 C and the inhibition of growth is measured photometrically after 72 hrs. The fungicide interactions in the combinations are calculated according to COLBY method, where C is ipconazole and D is a mixture of tebuconazole and azoxystrobin in a mass ratio of 2:1. The results for C & D solo are shown in Table below and those for the combinations in a range of ratios in Table 2.

Pyrenophora graminea = test: Fungal growth assay, Pyrenophora graminea (leaf stripe of barley), microtiter plate, photometric; assay type: cell-based; conditions: 72 hrs
Experimental: The action to be expected E for a given active ingredient combination obeys the so-called COLBY formula and can be calculated as follows (COLBY, S. R. “Calculating synergistic and antagonistic responses of herbicide combination”. Weeds, Vol. 15, pages 20-22; 1967): If the action actually observed (O) is greater than the expected action (E), then the action of the combination is super-additive, i.e. there is a synergistic effect. Inhibiting of fungal growth of the following fungi are carried out by fungal growth assays (detailed below). Pyrenophora […] stripe of barley): Conidia of the fungus from cryogenic storage are directly mixed into nutrient broth (PDB potato dextrose broth). After placing a (DMSO) solution of the test compounds into a microtiter plate (96-well format) the nutrient broth containing the fungal spores is added. The test plates are incubated at 24 C and the inhibition of growth is measured photometrically after 72 hrs. The fungicide interactions in the combinations are calculated according to COLBY method, where A is thiabendazole and B is a mixture of tebuconazole and azoxystrobin in a mass ratio of 2:1. The results for A & B solo are shown in Table below and those for the combinations in a range of ratios in Table 1.

## CC(C)C1CCC(Cc2ccc(Cl)cc2)C1(O)Cn1cncn1 (centres unmarked) [C, ipconazole]
Rhizoctonia solani; C solo 0.004 ppm
  Observed control in %: 9%
Rhizoctonia solani; C solo 0.008 ppm
  Observed control in %: 3%
Rhizoctonia solani; C solo 0.016 ppm
  Observed control in %: 0%
Rhizoctonia solani; C solo 0.031 ppm
  Observed control in %: 7%
Rhizoctonia solani; C solo 0.063 ppm
  Observed control in %: 0%
Rhizoctonia solani; C solo 0.125 ppm
  Observed control in %: 0%
Rhizoctonia solani; C solo 0.25 ppm
  Observed control in %: 2%
Rhizoctonia solani; C solo 0.5 ppm
  Observed control in %: 5%
Rhizoctonia solani; C solo 1.0 ppm
  Observed control in %: 0%
Rhizoctonia solani; C solo 2.0 ppm
  Observed control in %: 9%

## c1ccc2[nH]c(-c3cscn3)nc2c1 [A, thiabendazole]
Pyrenophora graminea; A solo 0.004 ppm
  Observed control in %: 0%
Pyrenophora graminea; A solo 0.008 ppm
  Observed control in %: 0%
Pyrenophora graminea; A solo 0.016 ppm
  Observed control in %: 0%
Pyrenophora graminea; A solo 0.031 ppm
  Observed control in %: 0%
Pyrenophora graminea; A solo 0.063 ppm
  Observed control in %: 0%
Pyrenophora graminea; A solo 0.125 ppm
  Observed control in %: 1%
Pyrenophora graminea; A solo 0.25 ppm
  Observed control in %: 10%
Pyrenophora graminea; A solo 0.5 ppm
  Observed control in %: 25%
Pyrenophora graminea; A solo 1.0 ppm
  Observed control in %: 29%
Pyrenophora graminea; A solo 2.0 ppm
  Observed control in %: 22%
